What was measured:
Experiment in all cases: relative viability (nuclei count vs DMSO), 5 days (fraction); higher = more cells survive
EHT 1864 + AZD7762 = compound: C1COCCN1CC2=CC(=O)C(=CO2)OCCCCCSC3=C4C=CC(=CC4=NC=C3)C(F)(F)F [EHT 1864] + NC(=O)Nc1cc(-c2cccc(F)c2)sc1C(=O)N[C@H]1CCCNC1 [AZD7762] (partner 0.2 µM)
Method in brief: (§1)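 Lung cancer cell lines in 1536-well plates got either a single drug or a fixed anchor-drug dose together with five library-drug doses (not always all listed) in √10 steps, by pin tool, on the day after seeding. Nuclei were counted after 5 days, and relative viability is the treated-to-vehicle ratio of nuclei counts. Values are medians of duplicate plates.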

EHT 1864 + Trametinib = compound: C1COCCN1CC2=CC(=O)C(=CO2)OCCCCCSC3=C4C=CC(=CC4=NC=C3)C(F)(F)F [EHT 1864] + CC(=O)Nc1cccc(-n2c(=O)n(C3CC3)c(=O)c3c(Nc4ccc(I)cc4F)n(C)c(=O)c(C)c32)c1 [Trametinib] (partner 0.02 µM)
Method in brief: as §1

EHT 1864 + Tozasertib = compound: C1COCCN1CC2=CC(=O)C(=CO2)OCCCCCSC3=C4C=CC(=CC4=NC=C3)C(F)(F)F [EHT 1864] + Cc1cc(Nc2cc(N3CCN(C)CC3)nc(Sc3ccc(NC(=O)C4CC4)cc3)n2)n[nH]1 [Tozasertib] (partner 0.1 µM)
Method in brief: as §1

EHT 1864 = compound: C1COCCN1CC2=CC(=O)C(=CO2)OCCCCCSC3=C4C=CC(=CC4=NC=C3)C(F)(F)F [EHT 1864]
Method in brief: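 Lung cancer cell lines in 1536-well plates were kept overnight at 37 °C, then pinned with five library-drug doses (not always all listed) spaced by √10 on vehicle-anchored plates. After 5 days without medium change, cells were fixed, permeabilised and Hoechst-stained in one step, imaged at 4×, and nuclei were counted with MetaXpress. Viability is treated-well nuclei divided by vehicle-well nuclei, taken as the median over plates. Plates passed only with control CV below 25% and at least one doubling.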

Cell Line	relative viability (EHT 1864 + AZD7762; first compound 0.04 µM)	relative viability (EHT 1864 + AZD7762; first compound 0.1265 µM)	relative viability (EHT 1864 + AZD7762; first compound 0.4 µM)	relative viability (EHT 1864 + AZD7762; first compound 1.265 µM)	relative viability (EHT 1864 + AZD7762; first compound 4 µM)	relative viability (EHT 1864 + Trametinib; first compound 0.04 µM)	relative viability (EHT 1864 + Trametinib; first compound 0.1265 µM)	relative viability (EHT 1864 + Trametinib; first compound 1.265 µM)	relative viability (EHT 1864 + Trametinib; first compound 4 µM)	relative viability (EHT 1864 + Tozasertib; first compound 0.04 µM)	relative viability (EHT 1864 + Tozasertib; first compound 0.1265 µM)	relative viability (EHT 1864 + Tozasertib; first compound 0.4 µM)	relative viability (EHT 1864 + Tozasertib; first compound 1.265 µM)	relative viability (EHT 1864 + Tozasertib; first compound 4 µM)	relative viability (EHT 1864; 0.04 µM)	relative viability (EHT 1864; 0.1265 µM)	relative viability (EHT 1864; 0.4 µM)	relative viability (EHT 1864; 1.265 µM)	relative viability (EHT 1864; 4 µM)	relative viability (EHT 1864 + Trametinib; first compound 0.4 µM)
H3255	0.797	0.795	0.995	0.867	1.04	0.561	0.527	0.65	0.67	0.576	0.603	0.633	0.677	0.527	0.903	0.82	0.963	0.946	1.01	–
EPLC-272H	0.387	0.379	0.267	0.259	0.236	0.283	0.288	0.267	0.289	0.299	0.352	0.143	0.314	0.284	1.04	0.952	0.926	1.04	1.03	0.29
PC-3 [JPC-3]	0.825	0.753	0.808	0.73	0.863	0.641	0.649	0.727	0.695	0.818	0.812	0.903	0.896	0.843	1.1	0.908	1.02	1.05	0.953	0.763
NCI-H1703	0.128	–	0.118	0.128	0.15	–	–	–	–	–	–	–	–	–	0.929	0.707	0.939	0.776	0.657	–
NCI-H2228	–	–	–	–	–	0.553	0.566	–	0.533	0.335	0.332	0.209	0.204	0.16	0.974	0.876	0.934	0.776	1	0.389
NCI-H520	–	–	–	–	–	0.692	0.628	0.659	0.67	0.377	0.376	0.388	0.483	0.377	0.885	0.889	0.889	1.04	1.02	0.732
EBC-1	–	–	–	–	–	–	–	–	–	–	–	–	–	–	0.942	0.865	0.961	0.931	0.924	–
NCI-H661	–	–	–	–	–	0.527	0.53	0.565	0.498	0.385	0.335	0.355	0.33	0.379	1.01	1.01	0.975	0.941	0.926	0.616
NCI-H1299	–	–	–	–	–	–	–	–	–	–	–	–	–	–	1.01	0.976	0.964	0.979	0.956	–
SK-LU-1	–	–	–	–	–	0.594	0.516	0.378	0.464	0.313	0.286	0.274	0.297	0.293	1.07	0.93	1.01	0.993	0.939	0.477
COR-L23	–	–	–	–	–	0.524	0.453	0.631	0.553	0.248	0.176	0.21	0.131	0.155	0.964	0.885	0.956	0.971	0.824	0.598
NCI-H1650	–	–	–	–	–	0.521	0.568	0.515	0.568	–	–	0.385	0.355	0.242	0.892	0.676	0.907	0.826	0.754	0.515
IA-LM	–	–	–	–	–	–	–	–	–	–	–	–	–	–	0.925	–	0.908	0.764	0.855	–
NCI-H2009	–	–	–	–	–	0.252	0.267	0.336	0.277	0.736	0.648	0.765	0.532	0.476	0.971	0.945	1.03	0.906	0.877	0.301
NCI-H1563	–	–	–	–	–	–	–	–	–	–	–	–	–	–	0.992	0.887	0.959	0.896	0.882	–
SK-MES-1	–	–	–	–	–	0.539	0.498	0.537	0.518	0.972	0.885	0.888	0.823	0.81	0.97	0.943	1.02	0.967	0.974	0.518
UMC-11	–	–	–	–	–	0.727	0.496	0.74	0.967	0.206	–	0.2	0.207	0.192	1	0.804	0.901	0.985	1.17	0.692
ABC-1	0.977	0.805	0.623	0.843	1.52	–	–	–	–	0.15	0.164	0.185	0.189	0.195	1.13	0.964	0.946	0.7	0.627	–
SW 1573	–	–	–	–	–	0.622	–	0.398	0.444	0.173	0.158	0.172	0.225	0.154	1.03	0.817	1.01	0.931	0.902	0.437
NCI-H1792	0.746	–	0.733	0.592	0.738	0.432	–	0.345	0.456	–	–	–	–	–	0.906	–	0.723	0.988	1	0.438
NCI-H2023	–	–	–	–	–	0.514	0.459	0.569	0.573	0.281	0.294	0.29	0.248	0.207	0.944	0.817	0.893	0.925	0.939	0.492
COR-L 105	–	–	–	–	–	0.443	0.395	0.462	0.508	0.343	0.36	0.367	0.369	0.693	0.893	0.869	1.05	0.975	0.945	0.513

— the supplement of paper PMC10307832
